Source: patent publication US11274114B2, “Modified mito-metformin compounds and methods of synthesis and use thereof” (THE MEDICAL COLLEGE OF WISCONSIN, INC., priority 2014, dated 2022)
Values joined by “and” are separate entries in the source; they are usually repeats but may differ in a detail not shown here. Equal entries are not always repeated.

What was measured:
[1] = test system: MiaPaCa-2 cells; test: Sytox Green cytotoxicity assay; assay type: cell-based; conditions: MiaPaCa-2, 24 h, 100 μM
Description: Cytotoxicity assay. To determine the cytotoxicity of Mito-Met analogs and other TPP^+-conjugated to a long chain aliphatic hydrocarbon, we used the Sytox assay as described previously. MiaPaCa-2 cells were treated for 24 h, and dead cells were monitored in the presence of 200 nM Sytox Green (Invitrogen). The Sytox method labels the nuclei of dead cells yielding green fluorescence. Fluorescence intensities from the dead cells in 96-well plate were acquired in real time every 15 min after 4 h using a plate reader (BMG Labtech, Inc.) equipped with an atmosphere controller set at 37° C. and 5% CO2:95% air, using a fluorescence detection with 485 nm (excitation) and 535 nm (emission). To measure the total cell number, all of the samples in each treatment group were permeabilized by adding Triton X 100 (0.065%) in the presence of Sytox Green for 3 h, and maximal fluorescence intensities were taken as 100%. Data are represented as a percentage of dead cells after normalization to total cell number for each group.

[2] = test system: MiaPaCa-2 cells; test: Oxygen consumption rate in intact cells, Seahorse XF96; assay type: cell-based, human; conditions: for concentration that inhibited OCR: intact MiaPaCa-2, after 24 h treatment and washout; for OCR inhibition: immediately after addition
Description: (§1) Respiratory enzyme activity in intact and permeabilized cells. The mitochondrial function in intact and permeabilized pancreatic cancer cells was measured using a Seahorse XF96 Extracellular Flux Analyzer (Seahorse Bioscience, North Billerica, Mass., USA). Unless specified otherwise, assays in intact cells were performed as previously described. Measurement of mitochondrial respiratory complexes in permeabilized cells was performed according to the manufacturer's instructions (Seahorse Bioscience). Briefly, intact cells were permeabilized using 1 nM Plasma Membrane Permeabilizer (PMP, Seahorse Bioscience) immediately before oxygen consumption rate (OCR) measurement by XF96. The oxygen consumption derived from mitochondrial complex I or complex II activity was measured by providing different substrates to mitochondria, e.g., pyruvate/malate for complex I and succinate for complex II activity. Rotenone, malonate and antimycin A were used as specific inhibitors of mitochondrial complex I, II and III activities, respectively.
Effects of Met and Mito-Met analogs on mitochondrial bioenergetics in MiaPaCa-2 cells. The oxygen consumption rate (OCR) and the extracellular acidification rate (ECAR) were measured as a readout of mitochondrial function and glycolysis using a Seahorse Bioscience XF96 extracellular flux analyzer. We compared the immediate OCR changes in response to different concentrations (e.g., IC50 or higher values determined by clonogenic assay) of Met, Mito-Met2, Mito-Met6, Mito-Met10, and phenformin (FIG. 13A).

[3] = test system: MiaPaCa-2 cells; test: IncuCyte real-time cell proliferation (cell confluence); assay type: cell-based, human
Description: Cell proliferation was measured using a label-free, non-invasive cellular confluence assay employing the IncuCyte™ Live-Cell Imaging Analyzer (Essen Bioscience). This system provides real-time cellular confluence data based on segmentation of high definition phase contrast images. MiaPaCa2 (1,000 cells/well) were seeded overnight on a 96-well plate, placed in an XL-3 incubation chamber maintained at 37 C. and cells photographed and confluence calculated every 2 hr by IncuCyte software. MiaPaCa2 cells were treated with Met (1 and 2 mM) or Mito-Met-C10 (1-2 μM).
(§2) IncuCyte Analyzer-real time measurement of cell proliferation. The cell proliferation was measured using a label-free, noninvasive cellular confluence assay by IncuCyte Live-Cell Imaging Systems (Essen Bioscience, Ann Arbor, Mich., USA; IncuCyte FLR). This system enables collection of live cell images at 2 h intervals over several days. The IncuCyte Analyzer provides real-time cellular confluence data based on segmentation of high-definition phase-contrast images. The cell proliferation is expressed as an increase in percentage of cell confluence.

[4] = test system: MiaPaCa-2 cells; test: Radiosensitization (X-radiation, clonogenic survival); assay type: cell-based, human; conditions: for PDAC radiosensitivity: 24 h pretreatment before X-radiation
Description: MiaPaCa2 cells (1000 cells/well) were cultured in quadruplicate overnight in 96-well plates and changed to fresh medium.
(§3) Radiation experiments. […] The cells were then treated with X-radiation at a dose of 0, 2, 4, and 6 Gy. The control cells were treated with the same concentration of vehicle (0.1% DMSO) where appropriate. After irradiation, cells were suspended and seeded at various densities (100-8,000 cells per well) in 6-well plates for clonogenic assay as described above. The plates were kept within the incubator and media changed every 3-4 days for 2 weeks. Wells with 10-50 sufficiently large clones were chosen for calculating the cell survival fractions.

[5] = biological target: T1, mitochondrial complex I (Homo sapiens, UniProt O75251+O75306+P03886); test: Complex I oxygen consumption (pyruvate/malate-driven OCR) in permeabilized cells, Seahorse XF96; assay type: cell-based; set-up: IC50, complex I oxygen consumption; other: permeabilized MiaPaCa-2, added acutely; conditions: permeabilized MiaPaCa-2, added acutely
Description: as §1
(§4) The oxygen consumption rate was measured using the permeabilized MiaPaCa-2 cells in MAS buffer supplemented with pyruvate. The use of permeabilized cells avoids differences in cellular uptake of compounds. […] We tested the effect of pretreating cells with Mito-Met10 or Met using the permeabilized model. […]
Target sequence in this assay (P03886 whole entry): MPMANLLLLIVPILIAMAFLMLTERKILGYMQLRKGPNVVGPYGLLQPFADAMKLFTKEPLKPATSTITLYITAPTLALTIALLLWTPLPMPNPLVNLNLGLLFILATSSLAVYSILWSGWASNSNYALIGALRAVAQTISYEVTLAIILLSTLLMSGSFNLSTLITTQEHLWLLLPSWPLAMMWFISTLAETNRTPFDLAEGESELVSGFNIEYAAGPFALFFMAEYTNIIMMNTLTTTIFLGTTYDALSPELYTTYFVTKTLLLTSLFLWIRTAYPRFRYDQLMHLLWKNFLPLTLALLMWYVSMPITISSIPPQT
Target sequence in this assay (O75251 39-213): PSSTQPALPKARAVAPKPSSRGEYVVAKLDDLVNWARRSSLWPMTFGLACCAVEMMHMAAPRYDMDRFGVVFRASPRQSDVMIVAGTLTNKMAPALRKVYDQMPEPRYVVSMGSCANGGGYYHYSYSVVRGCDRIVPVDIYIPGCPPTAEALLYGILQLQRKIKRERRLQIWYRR
Target sequence in this assay (O75306 34-463): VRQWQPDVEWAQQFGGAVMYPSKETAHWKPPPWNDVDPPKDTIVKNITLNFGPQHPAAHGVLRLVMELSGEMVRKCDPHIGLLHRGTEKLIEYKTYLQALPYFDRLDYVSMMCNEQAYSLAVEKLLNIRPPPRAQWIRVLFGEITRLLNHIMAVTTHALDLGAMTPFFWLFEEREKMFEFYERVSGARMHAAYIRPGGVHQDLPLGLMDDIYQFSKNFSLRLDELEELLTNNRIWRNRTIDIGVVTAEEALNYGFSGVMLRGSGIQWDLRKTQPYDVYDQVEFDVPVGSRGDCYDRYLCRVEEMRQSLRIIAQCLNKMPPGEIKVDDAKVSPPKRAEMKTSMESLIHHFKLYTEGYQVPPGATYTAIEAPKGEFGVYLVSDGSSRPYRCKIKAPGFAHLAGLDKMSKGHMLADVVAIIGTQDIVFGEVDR

[6] = test system: MiaPaCa-2 cells; test: Clonogenic assay (colony formation, survival fraction); assay type: cell-based, human; conditions: for colony formation: 24 h; for IC50: Homo sapiens, MIA PaCa-2, 24 h, read-out: IC50, colony formation / survival fraction
Description: Clonogenic assay. […] The plates were kept within the incubator and media changed every 3-4 days until the control cells formed sufficiently large clones. The cell survival fractions were calculated as previously described.

[7] = test system: HaCaT cells; test: IncuCyte cell proliferation in nonmalignant cells; assay type: cell-based; conditions: HaCaT keratinocytes
Description: as §2

[8] = test system: MCF-10A cells; test: IncuCyte cell proliferation in nonmalignant cells; assay type: cell-based; conditions: MCF-10A breast epithelial cells
Description: as §2

[9] = test system: MiaPaCa-2 cells
Description: Cells were grown on 10 cm dishes and treated with the compounds for 24 h in full media.
Next we investigated the relative uptake of different Mito-Met analogs (Mito-Met2, Mito-Met6, and Mito-Met10) and phenformin in MiaPaCa-2 cells (FIG. 12D). Cells were treated with respective Mito-Met analog (1 μM) for 1 h. Cells were lysed after washing and analyzed for Mito-Met analog by LC-MS.

[10] = test system: MiaPaCa-2 cell 3D spheroids; test: Three-dimensional spheroid growth in Matrigel; assay type: cell-based, human; conditions: 0.5 μM, compared to Met 10,000 μM
Description: Three-dimensional spheroid cell cultures of PDAC. MiaPaCa-2 cells (5,000) were seeded in 96-well plates containing Matrigel (Corning), used as scaffold. This typical 3D-cell culture system allows spheroids to form within the matrix. […] At days 3, 7, and 14 the wells were observed by bright-field microscopy and images acquired on a Nikon Eclipse Ti inverted microscope (Nikon instrument Inc., NY, USA). Spheroid-forming cells were counted using the Nikon NIS Elements imaging software (Nikon). Data are expressed as mean and SD of number of spheroids.

[11] = test system: MCF-10A cells; test: Radiosensitization (X-radiation, clonogenic survival) in normal cells; assay type: cell-based; conditions: 1 μM pretreatment
Description: as §3

[12] = Tissue accumulation in FC1242-luc orthotopic mice; assay type: in vivo; conditions: 1 mg/kg daily for 2 weeks, tissues harvested 3 days after last treatment
Description: FIG. 19. Tissue accumulation of Mito-Met in in vivo FC1242-luc orthotopic mouse model. FC1242-luc orthotopic mice treated with Mito-Met10 (1 mg/kg) daily for 2 weeks. Tissue harvesting and extractions were performed 3 days after the last treatment. Quantitative data on concentrations of Mito-Met after normalization to tissue wet weight are represented as mean±SD, n=5.

[13] = test system: AMPK; test: AMPK activation immunoblot (phospho-Thr-172 / total AMPK); assay type: cell-based, human; conditions: MiaPaCa-2
Description: In this example, the inventors have shown that the mito-met compounds of the present invention cause an increased AMPK activation in cancer cells. In preliminary experiments (FIG. 4), human MiaPaCa2 and murine FC1199 PDAC cells treated 30 min with 1 μM mito-met (MM), 1 mM Met, or the oligomycin positive control were lysed, and proteins size-separated on SDS-PAGE, transferred to PVDF, and probed with an antibody to phosphorylated AMPK Thr-172.
Immunoblotting. MiaPaCa-2 PDAC cells (1×10^6) were plated to 80% confluency in 60 mm dishes and then serum-starved for 5 hours. […] Cells were stimulated with oligomycin as a positive control. After stimulation, cells were washed twice in cold PBS and lysed using a modified RIPA buffer. Lysates were normalized for protein concentration, size separated using reducing SDS-PAGE, electro-transferred to PVDF membranes (Millipore) and then probed using primary and horseradish peroxidase-conjugated secondary antibodies. Antibodies against total or phosphorylated 5′ AMP-activated protein kinase (AMPK) were purchased from Cell Signaling Technology (Danvers, Mass.) and used at the manufacturer's recommended dilutions. Proteins were visualized by chemiluminescence with auto-exposure and quantified by densitometric analysis using the FluorChem HD2 from Cell Biosciences (Santa Clara, Calif.).

[14] = mouse
Description: In an initial proof-of-concept experiment, syngeneic KPC cells expressing Firefly luciferase (FC1242-luc) were orthotopically implanted to the pancreas of C57BL/6 mice and tumor growth monitored using bioluminescence imaging (FIG. 15F). Mice orthotopically autografted with FC1242-luc cells were treated daily with 1 mg/kg or 150 mg/kg Met, or 1 mg/kg Mito-Met. […] Serum from these animals was collected, and hepatic and kidney toxicity tested using standard AST, ALT, AP, and BUN assays, respectively.

[15] = test system: FC1242-luc autografts; test: Orthotopic syngeneic FC1242-luc tumor growth, bioluminescence imaging and calipers; assay type: in vivo, C57BL/6 mice; conditions: for in vivo tumor growth relative to Met: 1 mg/kg daily, intraperitoneal
From the text: In vivo studies and bioluminescence imaging.

[16] = biological target: T1, mitochondrial complex I; test: Complex I oxygen consumption (pyruvate/malate-driven OCR) in permeabilized cells, Seahorse XF96; assay type: cell-based; conditions: 24 h treatment, then permeabilized
Description: as §1, §4
Target sequence in this assay (O75251 39-213): as the sequence (O75251 39-213) above
Target sequence in this assay (O75306 34-463): as the sequence (O75306 34-463) above
Target sequence in this assay (P03886 whole entry): as the sequence (P03886 whole entry) above

[17] = intact MiaPaCa-2, immediately after addition

CC1(C)CC(OCCCCC[P+](c2ccccc2)(c2ccccc2)c2ccccc2)CC(C)(C)N1[O].[Br-] [Mito-Tempol]
cell death (Sytox Green) [1]: considerably more cytotoxic

[H]/N=C(/N)N/C(=N/[H])NCCc1ccccc1 [Phenformin, reference compound]
concentration inhibiting OCR to the same extent as Met [2, 17]: ten-fold lower concentration

N=C(N)NC(=N)NCC[P+](c1ccccc1)(c1ccccc1)c1ccccc1.[Br-] [Mito-Met2]
concentration that inhibited OCR [2]: 25 µM

CN(C)C(=N)N=C(N)N [Metformin]
inhibition at 1000 µM ([3]; Homo sapiens, MIA PaCa-2, 1,000 μM, read-out: inhibition of cell growth): 80%
PDAC radiosensitivity ([4]; 1 mM): increased radio-sensitization
PDAC radiosensitivity ([4]; 1 mM, listed as Met): increased radiosensitization
concentration that dose-dependently decreased oxygen consumption [2, 17]: 1 to 10 mM
concentration that inhibited OCR [5]: 3,000 μM
colony formation ([6]; 3 mM): Almost no colony formation
IC50 [6]: 1300 µM
cell proliferation (confluence) of nonmalignant cells [7]: not significantly affected
cell proliferation (confluence) of nonmalignant cells [8]: not significantly affected

N=C(N)NC(=N)NCCCCCCCCCC[P+](c1ccccc1)(c1ccccc1)c1ccccc1.[Br-] [Mito-Met10]
difference in intracellular uptake and retention, MiaPaCa-2 and MCF-10A cells ([9]; LC-MS (FIG. 14C)): four-fold
cellular uptake, fold higher than phenformin ([9]; MiaPaCa-2, 1 μM, 1 h): ~100 fold
fold more effective than Met in inhibiting PDAC proliferation [3]: ~1,000 fold and > 1,000 fold
inhibition at 0.2 µM ([3]; Homo sapiens, MIA PaCa-2, 0.2 μM, read-out: inhibition of cell growth): 70%
inhibition at 1 µM ([3]; Homo sapiens, MIA PaCa-2, 1 μM, read-out: inhibition of cell growth): > 90%
IC50 ([3]; Homo sapiens, MIA PaCa-2, MiaPaCa-2, read-out: IC50 (FIG. 12B, cell confluence)): 0.84 µM
fold lower concentration than Met for enhancement of radiation sensitivity ([4]; 1 μM versus Met 1 mM): 1,000 fold
PDAC radiosensitivity ([4]; 1 μM): as effective as 1 mM Met
spheroid growth [10]: potently inhibited
OCR inhibition ([2]; 1 μM): did not inhibit OCR
concentration that inhibited OCR [2]: 1 µM
OCR inhibition ([2]; ≈10 μM): slight inhibition
radiosensitivity in normal cells [11]: no radiosensitivity was observed
concentration that inhibited OCR [5]: 10 µM
tissue accumulation [12]: increased accumulation of this compound in liver, kidney, spleen, and tumor
cell death (Sytox Green) [1]: no detectable cell death
colony formation ([6]; 3 μM): Almost no colony formation
IC50 [6]: 1.1 µM
fold more effective than metformin in inhibiting MiaPaCa-2 cell proliferation ([6]; clonogenic, 24 h treatment (FIG. 5)): ~1,000 fold
AMPK activation, fold more potent / lower concentration than metformin [13]: ~1,000 fold
toxicity in vivo (hepatic and kidney) [14]: neither Met nor the mitochondria-targeted analog Mito-Met elicited toxicity in vivo
in vivo tumor growth relative to Met [15]: considerably more potent than Met
in vivo tumor growth relative to Met ([15]; listed as Mito-Met): considerably more effective than Met
therapeutic index, fold greater than Met ([15]; in vivo experiments): ~1,000 fold
cell proliferation (confluence) of nonmalignant cells [7]: not significantly affected
cell proliferation (confluence) of nonmalignant cells [8]: not significantly affected
concentration giving significant decrease in OCR (complex I inhibition) [16]: 0.75 µM

COC1=C(OC)C(=O)C(CCCCCCCCCC[P+](c2ccccc2)(c2ccccc2)c2ccccc2)=C(C)C1=O [Mito-Q]
cell death (Sytox Green) [1]: considerably more cytotoxic
